Key:
[1] = tested on: Aβ production in Chinese hamster ovary cells that over-express human APP695 with the London and Swedish mutations; assay: Cellular Aβ IC50 determination (Aβ40 sandwich ELISA); format: cell-based; conditions: Cricetulus griseus; cellular Aβ production; read-out: IC50
Protocol: The potency of compounds against memapsin 2 activity was determined in a cellular assay of Aβ production. […] Chinese hamster ovary cells that over-express human APP695 with the London and Swedish mutations were seeded in multi-well plates at 10% confluency. Compounds are dissolved in DMSO to concentrations near 1 mM, and diluted into culture media to a final concentration near 4 μM (final 0.4% DMSO). […] Aliquots were removed and assayed for Aβ40 content using a sandwich ELISA (BioSource International). Amount of Aβ40 over the range of concentration of compounds, relative to control incubations, were fit to a 4-parameter IC50 model.

memapsin 2 = memapsin 2 (Homo sapiens, UniProt P56817); assay: Inhibition of memapsin 2 beta-secretase activity (fluorogenic substrate FS-2); format: biochemical; conditions: memapsin 2, pH 4, 37° C., 20 minutes pre-incubation; read-out: M2Ki
Procedure, shortened: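 Memapsin 2 pre-incubated 20 min with compound at pH 4, 37° C, then FS-2 substrate (MCA-SEVNLDAEFK-DNP, APP Swedish cleavage site) added. Rate of fluorescence increase compared with uninhibited controls, fitted to a tight-binding inhibition model.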

Chain of memapsin 2 (P56817 46-501): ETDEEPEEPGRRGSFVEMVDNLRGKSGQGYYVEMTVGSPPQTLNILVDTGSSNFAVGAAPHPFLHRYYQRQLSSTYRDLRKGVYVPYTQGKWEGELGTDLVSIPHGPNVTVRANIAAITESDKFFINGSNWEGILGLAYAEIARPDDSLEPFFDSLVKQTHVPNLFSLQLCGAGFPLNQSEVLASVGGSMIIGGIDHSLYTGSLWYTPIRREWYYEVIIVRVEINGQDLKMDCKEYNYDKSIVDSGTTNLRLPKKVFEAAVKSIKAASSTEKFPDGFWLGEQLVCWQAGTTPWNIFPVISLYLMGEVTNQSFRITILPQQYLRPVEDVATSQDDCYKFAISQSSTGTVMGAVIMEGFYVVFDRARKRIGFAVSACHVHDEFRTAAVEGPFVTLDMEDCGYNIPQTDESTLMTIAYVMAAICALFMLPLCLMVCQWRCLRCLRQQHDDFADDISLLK

| Compound | IC50 [1] | Ki (memapsin 2) |
| --- | --- | --- |
| COc1cccc(CNC[C@@H](O)[C@H](Cc2ccccc2)NC(=O)c2cccc(C(=O)N(C)Cc3ccn(C)n3)c2)c1 [Compound 61, N1-((2S,3R)-3-hydroxy-4-(3-methoxybenzylamino)-1-phenylbutan-2-yl)-N3-methyl-N3-((1-methyl-1H-pyrazol-3-yl)methyl)isophthalamide] | 1 to 5 µM | < 0.3 µM |
| Cc1csc(CN(C)C(=O)c2cccc(C(=O)N[C@@H](Cc3ccccc3)[C@H](O)CNCc3ccccn3)c2)n1 [Compound 64, N1-((2S,3R)-3-hydroxy-1-phenyl-4-(pyridin-2-ylmethylamino)butan-2-yl)-N3-methyl-N3-((4-methylthiazol-2-yl)methyl)isophthalamide] | 1 to 5 µM | > 0.501 µM |
| Cc1csc(CN(C)C(=O)c2cccc(C(=O)N[C@@H](Cc3ccccc3)[C@H](O)CNCc3cncc(CCC(C)C)c3)c2)n1 [Compound 68, N1-((2S,3R)-3-hydroxy-4-((5-isopentylpyridin-3-yl)methylamino)-1-phenylbutan-2-yl)-N3-methyl-N3-((4-methylthiazol-2-yl)methyl)isophthalamide] | < 1 µM | < 0.3 µM |
| COc1cccc(CNC[C@@H](O)[C@H](Cc2ccccc2)NC(=O)c2cc(OS(C)(=O)=O)cc(C(=O)N[C@H](C)c3ccccc3)c2)c1 [Compound 70, 3-((2S,3R)-3-hydroxy-4-(3-methoxybenzylamino)-1-phenylbutan-2-ylcarbamoyl)-5-((R)-1-phenylethylcarbamoyl)phenyl methanesulfonate] | < 1 µM | < 0.3 µM |

Now from value to compound:

| IC50 [1] | Ki (memapsin 2) | Compound |
| --- | --- | --- |
| < 1 µM | < 0.3 µM | Cc1csc(CN(C)C(=O)c2cccc(C(=O)N[C@@H](Cc3ccccc3)[C@H](O)CNCc3cc(C(C)C)cnc3F)c2)n1 [Compound 56, N1-((2S,3R)-4-((2-fluoro-5-isopropylpyridin-3-yl)methylamino)-3-hydroxy-1-phenylbutan-2-yl)-N3-methyl-N3-((4-methylthiazol-2-yl)methyl)isophthalamide] |
| < 1 µM | < 0.3 µM | C[C@@H](NC(=O)c1cc(C(=O)N[C@@H](Cc2ccccc2)[C@H](O)CNCc2cccc(C(C)(C)C)c2)cc(N(C)S(C)(=O)=O)c1)c1ccccc1 [Compound 58, N1-((2S,3R)-4-(3-tert-butylbenzylamino)-3-hydroxy-1-phenylbutan-2-yl)-5-(N-methylmethylsulfonamido)-N3-((R)-1-phenylethyl)isophthalamide] |
| < 1 µM | < 0.3 µM | Cc1csc(CN(C(=O)c2cccc(C(=O)N[C@@H](Cc3ccccc3)[C@H](O)CNCc3cncc(C(F)(F)F)c3)c2)C2CC2)n1 [Compound 59, N1-cyclopropyl-N3-((2S,3R)-3-hydroxy-1-phenyl-4-((5-(trifluoromethyl)pyridin-3-yl)methylamino)butan-2-yl)-N1-((4-methylthiazol-2-yl)methyl)isophthalamide] |
| < 1 µM | < 0.3 µM | Cc1cc(C(=O)N[C@@H](Cc2ccccc2)[C@H](O)CNCc2ccnc(C(C)C)c2)cc(C(=O)N(C)Cc2nc(C)cs2)c1 [Compound 60, N1-((2S,3R)-3-hydroxy-4-((2-isopropylpyridin-4-yl)methylamino)-1-phenylbutan-2-yl)-N3,5-dimethyl-N3-((4-methylthiazol-2-yl)methyl)isophthalamide] |
| < 1 µM | < 0.3 µM | COc1cccc(CNC[C@@H](O)[C@H](Cc2ccccc2)NC(=O)c2cc(C(=O)N(C)Cc3nc(C)cs3)cc(N(C)C)c2)c1 [Compound 65, 5-(dimethylamino)-N1-((2S,3R)-3-hydroxy-4-(3-methoxybenzylamino)-1-phenylbutan-2-yl)-N3-methyl-N3-((4-methylthiazol-2-yl)methyl)isophthalamide] |
| < 1 µM | < 0.3 µM | COc1cccc(CNC[C@@H](O)[C@H](Cc2ccccc2)NC(=O)c2cc(OS(C)(=O)=O)cc(C(=O)N(C)Cc3nc(C)cs3)c2)c1 [Compound 67, 3-((2S,3R)-3-hydroxy-4-(3-methoxybenzylamino)-1-phenylbutan-2-ylcarbamoyl)-5-(methyl((4-methylthiazol-2-yl)methyl)carbamoyl)phenyl methanesulfonate] |
